Target: T1, D2 DAR (Homo sapiens, UniProt P14416)
T1 construct: expressed in transfected cells; host or cells: HEK293 T-REx, Tet-inducible, with chimeric G-protein Gqi5
Experiment: D2 Ca^2+ screen assay (calcium accumulation, HEK293 T-REx with Gqi5)
Format: cell-based
Conditions: dopamine D2 calcium release assay of Example 1; read-out: Ca^2+ AC50
Procedure: The resting concentration of calcium ions (Ca^2+) in the cells' cytoplasm is normally maintained in the range of 10-100 nM. To maintain this low concentration, Ca^2+ is actively pumped from the cytosol to the extracellular space and into the endoplasmic reticulum (ER), and sometimes into the mitochondria. Signaling occurs when the cell is stimulated to release Ca^2+ from intracellular stores. The most common signaling pathway that increases cytoplasmic calcium concentration is the phospholipase C (PLC) pathway. […] IP3 diffuses to the ER, binds to its receptor (IP3 receptor), which is a Ca^2+ channel and, thus, releases Ca^2+ from the ER to the cytosol. To measure this cytosolic Ca^2+ accumulation, we used the Screen Quest™ Fluo-8 Calcium Assay Kit (AAT Bioquest, Sunnyvale, Calif.). Acetoxymethyl (AM) esters bound to Fluo-8™ dye are non-polar molecules that easily cross live cell membranes transporting the dye inside the cell, and are then rapidly hydrolyzed by cellular esterases inside live cells. As Fluo-8™ is freed from AM esters, it binds to Ca^2+ and emits a fluorescent signal at 514 nm that escalates with increasing cytosolic Ca^2±. To measure this calcium flux signal, we used the Functional Drug Screening System (FDSS) (Hamamatsu, Japan), a high throughput screening device that allows optical detection of signal transmissions within living cells in a time-resolving fashion. […] Quest Fluo-8™ calcium reagent was freshly prepared prior to adding to the cells (lyophilized Fluo-8™ dye provided with the kit was re-suspended in 200 μL DMSO as a 500× stock and stored at −20° C.). 2 μL/well of Quest Fluo-8™ calcium dye diluted in HBSS +10 mM HEPES buffer (for every 10 mL buffer, 1 mL of 10× quencher provided in the kit and 20 μL of 500×DMSO stock dye were added) was added to cells with a Multi-Drop Combi (ThermoScientific) and incubated for 45-90 min in the dark at ambient temperature. Then, the plates were introduced into the FDSS where they were pinned with 23 nL of test compound or dopamine controls and were read by FDSS in non-stimulated mode for 180 sec for detection of agonists. […]

T1 sequence (P14416 whole entry): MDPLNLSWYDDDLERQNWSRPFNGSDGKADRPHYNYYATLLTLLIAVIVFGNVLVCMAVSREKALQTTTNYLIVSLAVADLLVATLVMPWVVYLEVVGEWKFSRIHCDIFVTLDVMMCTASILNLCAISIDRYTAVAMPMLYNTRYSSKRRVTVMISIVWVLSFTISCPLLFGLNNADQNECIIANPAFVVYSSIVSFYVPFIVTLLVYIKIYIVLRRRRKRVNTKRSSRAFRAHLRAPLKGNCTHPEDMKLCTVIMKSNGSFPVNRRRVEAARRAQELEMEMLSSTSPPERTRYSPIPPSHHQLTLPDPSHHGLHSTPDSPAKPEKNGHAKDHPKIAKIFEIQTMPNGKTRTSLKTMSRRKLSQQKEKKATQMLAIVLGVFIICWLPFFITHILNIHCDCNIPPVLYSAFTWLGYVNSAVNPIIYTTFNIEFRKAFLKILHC

AC50 [µM] | Compound
< 1 | CCN1C(=O)c2ccccc2[S+]([O-])c2ccc(C(=O)NCc3ccc(Cl)cc3)cc21 (stereo not drawn) [Compound 11]
< 1 | CN(C)CCCNC(=O)c1ccc2c(c1)N(C)C(=O)c1ccccc1[S+]2[O-] (stereo not drawn) [Compound 35, N-(3-(Dimethylamino)propyl)-10-methyl-11-oxo-10,11-dihydrodibenzo[b,f][1,4]thiazepine-8-carb oxamide 5-oxide]
< 1 | CCN1C(=O)c2ccccc2[S+]([O-])c2ccc(C(=O)NCc3ccccc3)cc21 (stereo not drawn) [Compound 4, N-Benzyl-10-ethyl-11-oxo-10,11-dihydrodibenzo[b,f][1,4]thiazepine-8-carboxamide 5-oxide]
< 1 | CN1C(=O)c2ccccc2[S+]([O-])c2ccc(C(=O)NCc3ccc(F)cc3)cc21 (stereo not drawn) [Compound 26, N-(4-Fluorobenzyl)-10-methyl-11-oxo-10,11-dihydrodibenzo[b,f][1,4]thiazepine-8-carboxamide 5-oxide]
< 1 | COc1ccc(CNC(=O)c2ccc3c(c2)N(C)C(=O)c2ccccc2[S+]3[O-])cc1 (stereo not drawn) [Compound 20, N-(4-Methoxybenzyl)-10-methyl-11-oxo-10,11-dihydrodibenzo[b,f][1,4]thiazepine-8-carboxamide 5-oxide]
< 1 | CCN1C(=O)c2ccccc2[S+]([O-])c2ccc(C(=O)NCc3ccc(C)cc3)cc21 (stereo not drawn) [Compound 8, 10-Ethyl-N-(4-methylbenzyl)-11-oxo-10,11-dihydrodibenzo[b,f][1,4]thiazepine-8-carboxamide 5-oxide]
< 1 | CN1C(=O)c2ccccc2[S+]([O-])c2ccc(C(=O)NCc3cccnc3)cc21 (stereo not drawn) [Compound 31, 10-Methyl-11-oxo-N-(pyridin-3-ylmethyl)-10,11-dihydrodibenzo[b,f][1,4]thiazepine-8-carboxamide 5-oxide]
< 1 | CN1C(=O)c2ccccc2[S+]([O-])c2ccc(C(=O)NCCN3CCCCC3)cc21 (stereo not drawn) [Compound 34, 10-Methyl-11-oxo-N-(2-(piperidin-1-yl)ethyl)-10,11-dihydrodibenzo[b,f][1,4]thiazepine-8-carboxamide 5-oxide]
< 1 | CCN1C(=O)c2ccccc2[S+]([O-])c2ccc(C(=O)NCc3ccc(SC)cc3)cc21 (stereo not drawn) [Compound 6, 10-Ethyl-N-(4-(methylthio)benzyl)-11-oxo-10,11-dihydrodibenzo[b,f][1,4]thiazepine-8-carboxamide 5-oxide]
< 1 | CCN1C(=O)c2ccccc2[S+]([O-])c2ccc(C(=O)NCc3ccc(F)cc3)cc21 (stereo not drawn) [Compound 10, 10-Ethyl-N-(4-fluorobenzyl)-11-oxo-10,11-dihydrodibenzo[b,f][1,4]thiazepine-8-carboxamide 5-oxide]
< 1 | CCN1C(=O)c2ccccc2[S+]([O-])c2ccc(C(=O)NCc3ccc4c(c3)OCO4)cc21 (stereo not drawn) [Compound 15, N-(benzo[d][1,3]dioxol-5-ylmethyl)-10-ethyl-11-oxo-10,11dihydrodibenzo[b,f][1,4]thiazepine-8-carboxamide 5-oxide]
< 1 | CCN1C(=O)c2ccccc2[S+]([O-])c2ccc(C(=O)Nc3ccccc3)cc21 (stereo not drawn) [Compound 16, 10-Ethyl-11-oxo-N-phenyl-10,11-dihydrodibenzo[b,f][1,4]thiazepine-8-carboxamide 5-oxide]
< 1 | CCN1C(=O)c2ccccc2[S+]([O-])c2ccc(C(=O)NCc3ccc(C#N)cc3)cc21 (stereo not drawn) [Compound 12, N-(4-Cyanobenzyl)-10-ethyl-11-oxo-10,11-dihydrodibenzo[b,f][1,4]thiazepine-8-carboxamide 5-oxide]
< 1 | CCN1C(=O)c2ccccc2[S+]([O-])c2ccc(NC(=O)Cc3ccc(F)cc3)cc21 (stereo not drawn) [Compound 46, N-(10-Ethyl-11-oxo-10,11-dihydrodibenzo[b,f][1,4]thiazepin-8-yl)-2-(4-fluorophenyl)acetamide 5-oxide]
< 1 | CN1C(=O)c2ccccc2[S+]([O-])c2ccc(C(=O)NCc3ccccc3)cc21 (stereo not drawn) [Compound 25, N-Benzyl-10-methyl-11-oxo-10,11-dihydrodibenzo[b,f][1,4]thiazepine-8-carboxamide 5-oxide]
< 1 | CCN1C(=O)c2ccccc2[S+]([O-])c2ccc(C(=O)NCc3ccc(S(C)(=O)=O)cc3)cc21 (stereo not drawn) [Compound 13, 10-Ethyl-N-(4-(methylsulfonyl)benzyl)-11-oxo-10,11-dihydrodibenzo[b,f][1,4]thiazepine-8-carboxamide 5-oxide]
< 1 | CN1C(=O)c2ccccc2[S+]([O-])c2ccc(C(=O)NCc3ccc(Br)cc3)cc21 (stereo not drawn) [Compound 29, N-(4-Bromobenzyl)-10-methyl-11-oxo-10,11-dihydrodibenzo[b,f][1,4]thiazepine-8-carboxamide 5-oxide]
< 1 | CCCN1C(=O)c2ccccc2[S+]([O-])c2ccc(C(=O)NCc3ccc(OC)cc3)cc21 (stereo not drawn) [Compound 21, N-(4-Methoxybenzyl)-11-oxo-10-propyl-10,11-dihydrodibenzo[b,f][1,4]thiazepine-8-carboxamide 5-oxide]
< 1 | CCN1C(=O)c2ccccc2[S+]([O-])c2ccc(C(=O)NCc3ccc(C(F)(F)F)cc3)cc21 (stereo not drawn) [Compound 9, 10-Ethyl-11-oxo-N-(4-(trifluoromethyl)benzyl)-10,11-dihydrodibenzo[b,f][1,4]thiazepine-8-carboxamide 5-oxide]
< 1 | COc1ccc(NC(=O)c2ccc3c(c2)N(C)C(=O)c2ccccc2[S+]3[O-])cc1 (stereo not drawn) [Compound 24, N-(4-Methoxyphenyl)-10-methyl-11-oxo-10,11-dihydrodibenzo[b,f][1,4]thiazepine-8-carboxamide 5-oxide]
< 1 | CCN1C(=O)c2ccccc2[S+]([O-])c2ccc(C(=O)NCc3ccc(C(C)(C)C)cc3)cc21 (stereo not drawn) [Compound 7, N-(4-tert-Butylbenzyl)-10-ethyl-11-oxo-10,11-dihydrodibenzo[b,f][1,4]thiazepine-8-carboxamide 5-oxide]
< 1 | CN1C(=O)c2ccccc2[S+]([O-])c2ccc(C(=O)NCc3ccc(Cl)cc3)cc21 (stereo not drawn) [Compound 27, N-(4-Chlorobenzyl)-10-methyl-11-oxo-10,11-dihydrodibenzo[b,f][1,4]thiazepine-8-carboxamide 5-oxide]
< 1 | CCN1C(=O)c2ccccc2[S+]([O-])c2ccc(C(=O)Nc3ccc(OC)cc3)cc21 (stereo not drawn) [Compound 17, 10-Ethyl-N-(4-methoxyphenyl)-11-oxo-10,11-dihydrodibenzo[b,f][1,4]thiazepine-8-carboxamide 5-oxide]
< 1 | CCN1C(=O)c2ccccc2[S+]([O-])c2ccc(C(=O)NC(C)c3ccccc3)cc21 (stereo not drawn) [Compound 5, 10-Ethyl-11-oxo-N-(1-phenylethyl)-10,11-dihydrodibenzo[b,f][1,4]thiazepine-8-carboxamide 5-oxide]
< 1 | CCN1C(=O)c2ccccc2[S+]([O-])c2ccc(C(=O)NCc3cccc(OC)c3)cc21 (stereo not drawn) [Compound 2, 10-Ethyl-N-(3-methoxybenzyl)-11-oxo-10,11-dihydrodibenzo[b,f][1,4]thiazepine-8-carboxamide 5-oxide]
< 1 | CN1C(=O)c2ccccc2[S+]([O-])c2ccc(C(=O)NCc3cccc(Cl)c3)cc21 (stereo not drawn) [Compound 28, N-(3-Chlorobenzyl)-10-methyl-11-oxo-10,11-dihydrodibenzo[b,f][1,4]thiazepine-8-carboxamide 5-oxide]
< 1 | CCN1C(=O)c2ccccc2[S+]([O-])c2ccc(C(=O)NCCc3ccc(OC)cc3)cc21 (stereo not drawn) [Compound 18, 10-Ethyl-N-(4-methoxyphenethyl)-11-oxo-10,11-dihydrodibenzo[b,f][1,4]thiazepine-8-carboxamide 5-oxide]
< 1 | CCN1C(=O)c2ccccc2[S+]([O-])c2ccc(NC(=O)Cc3ccc(OC)cc3)cc21 (stereo not drawn) [Compound 45, N-(10-Ethyl-11-oxo-10,11-dihydrodibenzo[b,f][1,4]thiazepin-8-yl)-2-(4-methoxyphenyl)acetamide 5-oxide]
< 1 | CCN1C(=O)c2ccccc2Sc2ccc(C(=O)NCc3ccc(OC)cc3)cc21 [Compound 36, 10-Ethyl-N-(4-methoxybenzyl)-11-oxo-10,11-dihydrodibenzo[b,f][1,4]thiazepine-8-carboxamide]
< 1 | CN1C(=O)c2ccccc2[S+]([O-])c2ccc(C(=O)NCCN3CCCC3)cc21 (stereo not drawn) [Compound 33, 10-Methyl-11-oxo-N-(2-(pyrrolidin-1-yl)ethyl)-10,11-dihydrodibenzo[b,f][1,4]thiazepine-8-carboxamide 5-oxide]

From patent US9550742B2, “11-OXO-10,11-dihydrodibenzo[B,F][1,4]thiazepine S-oxide derivatives and their use as dopamine D2 receptor antagonists” (The United States of America, as Represented by the …, priority 2013, dated 2017)
